# Measurements from a melting point compilation (Tetko et al.).
row,Compound,melting point [°C]
1,CCCCCC(C)=O,-35
2,Cc1ccccc1NC(=O)c1cncc(Cl)n1,98
3,O=c1c2ccccc2oc2ncccc12,180 to 182
4,O=C(O)c1cc(S(=O)(=O)O)ccc1O,120
5,NC(Cc1ccc(F)cc1Cl)=NO,146 to 147
6,O=[N+]([O-])c1cc(C(F)(F)F)c(Cl)c([N+](=O)[O-])c1Nc1ncc(C(F)(F)F)cc1Cl,117
7,CCCCCCN(C)C(=O)COC(=O)c1ccccc1,100
8,OCc1cccc2[nH]ccc12,67 to 68
9,Cc1cc(C)c(NC(N)=S)c(C)c1,231
10,COc1ccc(C=C2C(=O)OC(C)(C)OC2=O)cc1OC,164
11,CCOC(=O)c1[nH]c(C)c(CO)c1C,220 to 222
12,CNCc1ccc(-c2ccsc2)cc1,68 to 69
13,CCCCCCCCCCCCCCCCCC(=O)OCCCCC,30
14,NNC(=O)c1ccc(Cl)c(Cl)c1,154 to 160
15,Nc1ccc(C(=O)NCCC(=O)O)cc1,152
16,Brc1ccc2ccc3cccc4ccc1c2c34,95
17,O=C1CCC(c2ccccc2)(C2CCN(Cc3ccccc3)CC2)C(=O)N1 (stereo not given),156
18,CSC(=O)c1cccc2nnsc12,133
19,O=C(c1c(F)c(F)c(F)c(F)c1F)c1c(F)c(F)c(F)c(F)c1F,93
20,CCOc1ccccc1F,-16.7
21,CC1=C(C#N)C(c2cccc([N+](=O)[O-])c2)C(C(=O)OCCN(C)C)=C(C)N1 (stereo not given),72 to 73
22,CC(C)(O)C(Cl)(Cl)Cl,97
23,CN(C)C(=O)OC1=CC(=O)CC(C)(C)C1,45.5
24,C=C1C(C)CCC2(C)C3=C(C(=O)C4(CC4C)C(O)C3=O)C(OC(C)=O)C(O)C12 (stereo not given),195 to 196
25,Cc1ccccc1NC(=O)c1cnc(C(C)(C)C)c(Cl)n1,115

row,Compound,melting point [°C]
1,Nc1ccc(C(C/C(=N/O)c2ccccc2)NO)cc1 (stereo not given),178 to 179
2,CCCCCCCCCCCCCCCCCCN(C)C,22.9
3,O=C(NCO)c1cccnc1,142
4,O=C(O)Cc1c(F)cccc1F,101
5,Clc1ccc(-c2c(Cl)cc(Cl)cc2Cl)cc1,65
6,O=C(O)CNCC(=O)O,248
7,CCCCCCc1ccc(C(=O)Oc2ccc(C#N)cc2)cc1,46
8,CCOC(=O)c1cc(C(=O)CBr)on1,71 to 73
9,O=C1/C(=N\O)C(c2ccc([N+](=O)[O-])cc2)=NN1c1ccccc1,222 to 224
10,CC1CCSCC1,-28
11,Clc1c2ccccc2cc2ccccc12,104
12,ON=C(Cl)c1ccc(Cl)cc1Cl,93 to 95
13,CCOC(=O)c1cnc2cc(C)nn2c1C,100 to 101
14,CC(C)(Oc1ccc(C(C)(C)C)cc1)C(=O)O,97 to 98
15,CC1=NN(c2ccc(C(=O)O)cc2)C(=O)C1,284 to 288
16,Cc1ccc(CC=O)cc1,40
17,CNC(=O)Oc1ccc(N(C)C)c(C)c1,93.9
18,Cn1c(=O)n(-c2cccc(Cl)c2)c(=O)c2c3c(sc21)CCCC3,240 to 241
19,OCCCCCCC(F)(F)C(F)(F)C(F)(F)C(F)(F)C(F)(F)C(F)(F)C(F)(F)C(F)(F)F,56
20,O=Cc1cccc([N+](=O)[O-])c1O,110
21,Oc1ccccc1[C@H]1C[C@H](c2ccccc2)Sc2ccccc2N1,89.8
22,CC(Oc1ccc(OC(F)(F)F)cc1)C(=O)O (stereo not given),76 to 78
23,O=[N+]([O-])c1cc(Br)cc(Br)c1O,118 to 119
24,NC(=O)NN=Cc1ccc2c(Br)cccc2c1,270
25,C/C=C/Br,-77

row,Compound,melting point [°C]
1,COc1cc(C=O)ccc1OC(C)=O,76
2,NC(=NO)c1cccc(Cl)c1Cl,139 to 140
3,O=Cc1ccc(-n2cccc2)cc1,94 to 95
4,C=CN1C(=O)c2ccccc2C1=O,86
5,Cc1cc(Br)c(N)c(Br)c1,74
6,O=C1C(=Cc2ccc(O)c(O)c2)Oc2cc(O)ccc21,303
7,CCC(=O)Oc1cccc2ccccc12,34 to 35
8,O=C(c1ccccc1)C(Br)C(Br)c1ccccc1 (stereo not given),156
9,Cc1nc(C)c(C)nc1C,85
10,C=CC1CN2CCC1CC2C(=O)c1ccnc2ccc(OC)cc12 (stereo not given),108
11,Cc1[nH]nc(Cl)c1[N+](=O)[O-],111
12,Nc1c(F)cc(F)cc1Br,40
13,CSCC[C@H](NC(=O)OCC1c2ccccc2-c2ccccc21)C(=O)O,132 to 136
14,CCCCCCCCCCOC(=O)c1ccccc1C(=O)OCCCCCC,-4
15,CCOC(=O)C(C)(C)N1CCN(c2ccc(Cl)cc2)CC1,56
16,O=C(c1cccs1)c1noc(-c2cccc3ccccc23)c1S(=O)(=O)c1ccccc1,124
17,Cc1ccc2c(c1Cl)C(=O)c1ccccc1C2=O,170
18,O=C(O)c1cccnc1Oc1ccc2c(c1)OCO2,181 to 183
19,C=Cc1ccc(Cl)cc1,15.9
20,CC(CC(=O)O)C(=O)O (stereo not given),118
21,CCCCCCCCCCCCCCCC(=O)Oc1c[nH]c2ccc(Br)c(Cl)c12,53 to 57
22,CC1=CC2OC1C(Cl)(Cl)C(=O)C2(Cl)Cl (stereo not given),90 to 90.5
23,NNC(=O)C(F)(F)F,111 to 115
24,O=c1[nH]c2ccccc2c(-c2ccccc2)c1O,268
25,Cc1ccc(C)n1-c1ccsc1C(=O)NN,135 to 136

row,Compound,melting point [°C]
1,OCC1OC(n2cnc3c2N=CNCC3O)CC1O (stereo not given),220
2,N#CC1(c2ccc(F)cc2Cl)CCCCC1,58 to 65
3,C#CC(C)(C)N,18
4,Oc1ccc(Br)c2cccnc12,124
5,O=Nc1ccc(Nc2ccccc2)cc1,143
6,CC1(C)OC(=O)C(=NNc2ccc(O)cc2)C(=O)O1,238
7,O=C(O)c1ccc(-c2ccc(O)cc2)cc1,316
8,O=C(NCc1ccccc1)c1cccnc1Cl,120
9,NC(=S)c1cccc(F)c1,110
10,Cc1csc(C)c1C,-26.2
11,O=C(Cl)c1sc(-c2ccccc2)nc1-c1ccccc1,139
12,CC1CC(=O)CC2CCC3C4CCC(O)C4(C)CCC3C12C (stereo not given),204
13,CC(O)COC(C)(C)C (stereo not given),-56
14,CC1CCC(C)(C(=O)N(C(=O)C2(C)CCC(C)C2(C)C)c2ccccc2)C1(C)C (stereo not given),212
15,FC(F)=C(F)C(F)=C(F)F,-132
16,Nc1c(Cl)ncnc1Cl,145
17,CNC(=O)n1cc(F)c(=O)[nH]c1=O,226
18,Cc1ccc(/N=N/C2C(=O)NN(c3ccccc3)C2=O)cc1 (stereo not given),247
19,CCCCCCCCC(=O)OC(=O)CCCCCCCC,14.8
20,Nc1ccc(OC2CCOCC2)cc1,71 to 73
21,OCc1ccncn1,77
22,CC(c1ncncc1F)C(O)(Cn1cncn1)c1ccc(F)cc1F (stereo not given),128
23,Cc1ccc(C)c(C#N)c1,13 to 14
24,O=C(C1=NOC2C(=O)N(c3ccccc3Cl)C(=O)C12)c1cccs1 (stereo not given),180
25,N#Cc1ccc(-c2cccs2)s1,100

row,Compound,melting point [°C]
1,OC1C(C2COC3(CCCCC3)O2)OC2OC3(CCCCC3)OC21 (stereo not given),129 to 135
2,O=C(O)C1Cc2cc(O)ccc2CN1 (racemic),256 to 260
3,COc1cc(C2Nn3c(nnc3-c3ccccc3OC)S2)ccc1O (stereo not given),137
4,CC(=O)NC1=NC(=O)C(=Cc2coc3ccc(Br)cc3c2=O)N1C,259 to 261
5,CCCCCCCCC1CCCCC1,-20
6,O=C1c2ccccc2CC2c3ccccc3C=CN12 (stereo not given),128
7,NC(=O)C1CCN(CCCN2c3ccccc3Sc3ccc(Cl)cc32)CC1,139
8,O=[N+]([O-])c1sc2ccccc2c1Br,165 to 167
9,Brc1noc2ncccc12,135
10,Nc1ncnc2c1ncn2C1OC2COP(=O)(O)OC2C1O (stereo not given),260
11,O=S(=O)(O)c1ccc(O)c2ncccc12,322
12,CC(C)(S)C(=O)O,47
13,Cc1cc(=S)cc(C)o1,142
14,Cc1c(C)c(Br)c(Br)c(Br)c1Br,262
15,Nc1cc2ccccc2cc1N,199
16,CC(C)c1ccc(CC(=O)O)cc1,52
17,C=Cc1cccc(C=C)c1,-52.3
18,Cc1cc(Br)cnc1Cl,40 to 44
19,Clc1cccc(C(Cl)(Cl)Cl)n1,63
20,O=C(O)C(Br)=C(Br)C(=O)O,119 to 125
21,NC(C(=O)O)c1ccc(O)cc1 (stereo not given),240
22,Cc1nc([N+](=O)[O-])cn1C(C)C,86
23,OCc1cccc2ccsc12,76.5 to 78
24,COP(=O)(OC)OC(=CCl)c1ccc(Cl)cc1Cl,69.5
25,CC(=O)c1ccc(C)c(C)c1,-3
